Data taken from the supplement of paper PMC10331698.
± gives the standard deviation of the averaged measurements.

Assays:
Assay in all cases: LOEC (log10 uM (lowest observed effect concentration))
Azathioprine = compound: Cn1cnc([N+](=O)[O-])c1Sc1ncnc2[nH]cnc12 [Azathioprine]
Experimental: (§1)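 BioMAP Diversity Plus panel in human primary cell co-cultures, 4 concentrations in duplicate blinded samples. Responses are log10 fold change versus DMSO control, processed with tcpl v2.1.0. A hit is called when responses at any concentration exceed the cutoff (the larger of 3*bmad or log10(1.2)); the lowest observed effect concentration (modl_ga, log10 uM) is reported for hits.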

[1] = compound: O=C(O)C(F)(F)C(F)(F)C(F)(F)C(F)(F)C(F)(F)C(F)(F)C(F)(F)C(F)(F)Cl [9-Chloro-perfluorononanoic acid]
Experimental: as §1

[2] = compound: C=CC(=O)OCCC(F)(F)C(F)(F)C(F)(F)C(F)(F)F [2-(Perfluorobutyl)ethyl acrylate]
Experimental: as §1

Perfluorooctanamidine = compound: N=C(N)C(F)(F)C(F)(F)C(F)(F)C(F)(F)C(F)(F)C(F)(F)C(F)(F)F [Perfluorooctanamidine]
Experimental: as §1

[3] = compound: O=P(O)(O)CCC(F)(F)C(F)(F)C(F)(F)C(F)(F)C(F)(F)C(F)(F)C(F)(F)C(F)(F)F [((Perfluorooctyl)ethyl)phosphonic acid]
Experimental: as §1

[4] = compound: O=C(O)C(F)(F)C(F)(F)C(F)(F)C(F)(F)C(F)(F)C(F)(F)C(F)(F)C(F)(F)C(F)(F)C(F)(F)C(F)(F)C(F)(F)F [Perfluorotridecanoic acid]
Experimental: as §1

[5] = compound: O=C(O)C(F)(F)OC(F)(F)C(F)(F)OC(F)(F)C(F)(F)C(F)(F)C(F)(F)F [Perfluoro-3,6-dioxadecanoic acid]
Experimental: as §1

[6] = compound: CNS(=O)(=O)C(F)(F)C(F)(F)C(F)(F)C(F)(F)C(F)(F)C(F)(F)C(F)(F)C(F)(F)F [N-Methylperfluorooctanesulfonamide]
Experimental: as §1

[7] = compound: O=S(=O)(O)C(F)(F)C(F)(F)C(F)(F)C(F)(F)C(F)(F)C(F)(F)C(F)(F)C(F)(F)F [Perfluorooctanesulfonic acid]
Experimental: as §1

[8] = compound: O=S(=O)(O)C(F)(F)C(F)(F)C(F)(F)C(F)(F)C(F)(F)C(F)(F)C(F)(F)C(F)(F)F [Potassium perfluorooctanesulfonate]
Experimental: as §1

Row | Test System | LOEC (log10 uM) (Azathioprine) | LOEC (log10 uM) [1] | LOEC (log10 uM) [2] | LOEC (log10 uM) (Perfluorooctanamidine) | LOEC (log10 uM) [3] | LOEC (log10 uM) [4] | LOEC (log10 uM) [5] | LOEC (log10 uM) [6] | LOEC (log10 uM) [7] | LOEC (log10 uM) [8]
1 | SAg IL8 down | 1.48 | 1.78 | 1.78 |  |  |  |  |  |  | 
2 | SAg MCP1 down |  | 1.78 | 1.78 |  |  |  |  |  |  | 
3 | SAg PBMCCytotoxicity down |  |  | 1.78 | 1.78 |  |  |  |  |  | 
4 | SAg Proliferation down | 0.954 |  | 1.54 ± 0.34 | 1.78 |  |  |  |  |  | 
5 | SAg SRB down |  | 1.78 |  | 1.78 | 1.78 |  |  |  |  | 
6 | hDFCGF CollagenIII down | 0.977 ± 0.71 | 1.3 |  | 1.3 | 1.3 | 0.477 | 1.78 |  |  | 
7 | hDFCGF EGFR down |  |  |  |  |  |  | 1.78 |  |  | 
8 | hDFCGF ICAM1 down |  | 1.07 ± 0.32 | 1.78 |  |  |  |  | 1.78 |  | 
9 | hDFCGF IP10 down | 1.22 ± 0.37 | 1.3 | 1.3 |  |  | 0.239 ± 0.34 | 1.54 ± 0.34 |  | 1.3 | 1.07 ± 0.32
10 | hDFCGF ITAC down | 0.977 ± 0.71 | 0.573 ± 0.39 | 1.07 ± 0.32 |  |  | 0.239 ± 0.34 | 1.54 ± 0.34 |  |  | 1.78
11 | hDFCGF MCP1 down |  | 1.78 |  |  |  |  |  |  |  | 
12 | hDFCGF MCSF down | 1.48 | 1.78 | 1.3 | 1.78 |  |  | 1.78 |  |  | 1.78
13 | hDFCGF MIG down |  | 1.3 | 1.3 |  |  | 0.716 ± 0.34 | 1.54 ± 0.34 |  |  | 1.78
14 | hDFCGF MMP1 down |  | 0.845 |  |  |  |  |  |  |  | 
15 | hDFCGF MMP1 up |  |  | 1.54 ± 0.34 |  |  |  |  |  |  | 
16 | hDFCGF PAI1 down | 1.48 | 1.78 |  | 1.78 | 1.78 |  |  |  |  | 
17 | hDFCGF SRB down |  | 1.78 |  |  |  |  |  |  |  | 
18 | hDFCGF TIMP2 down |  | 1.3 |  |  |  |  |  |  | 1.78 | 1.54 ± 0.34
19 | hDFCGF VCAM1 down | 1.48 | 1.78 | 1.3 | 1.54 ± 0.34 |  | 0.977 ± 0.71 | 1.3 | 0.573 ± 0.39 | 1.78 | 1.78
